Tested on: GIST patients
Assay: Example 3: safety, TEAEs in GIST patients at ≥100 mg daily
Assay type: in vivo, human
Experimental: Grade 3 or 4 treatment-emergent adverse events (TEAEs) in >5% of patients were lipase increased (18%; n=33), anemia (11%; n=20), hypertension (7%; n=13) and abdominal pain (6%; n=11). 13% of patients (n=24) experienced TEAEs leading to study treatment discontinuation, 17% of patients (n=31) experienced TEAEs leading to dose reduction and 49% of patients (n=88) had TEAEs leading to study drug interruption. Table 3 lists TEAEs>10% for GIST patients treated with ≥100 mg of ripretinib daily.

[1] = 1st column pair, head not printed (likely Grade 1/2)
[2] = 3rd column pair, head not printed (likely all grades)

CCn1c(=O)c(-c2cc(NC(=O)Nc3ccccc3)c(F)cc2Br)cc2cnc(NC)cc21 [ripretinib]
Patients with TEAEs leading to dose reduction, %: 17%
Patients with TEAEs leading to dose reduction, number: 31
Patients with TEAEs leading to study drug interruption, %: 49%
Patients with TEAEs leading to study drug interruption, number: 88
Patients with TEAEs leading to study treatment discontinuation, %: 13%
Patients with TEAEs leading to study treatment discontinuation, number: 24
Abdominal pain: patients, % [1]: (18%)
Abdominal pain: patients, number [1]: 33
Actinic keratosis: patients, % [1]: (14%)
Actinic keratosis: patients, number [1]: 25
Alopecia: patients, % [1]: (57%)
Alopecia: patients, number [1]: 102
Amylase increased: patients, % [1]: (11%)
Amylase increased: patients, number [1]: 19
Anemia: patients, % [1]: (10%)
Anemia: patients, number [1]: 18
Arthralgia: patients, % [1]: (22%)
Arthralgia: patients, number [1]: 40
Back Pain: patients, % [1]: (17%)
Back Pain: patients, number [1]: 30
Blood bilirubin increase: patients, % [1]: (9%)
Blood bilirubin increase: patients, number [1]: 16
Blood creatine phosphokinase increased: patients, % [1]: (7%)
Blood creatine phosphokinase increased: patients, number [1]: 13
Constipation: patients, % [1]: (37%)
Constipation: patients, number [1]: 67
Cough: patients, % [1]: (21%)
Cough: patients, number [1]: 37
Decreased appetite: patients, % [1]: (34%)
Decreased appetite: patients, number [1]: 60
Diarrhea: patients, % [1]: (28%)
Diarrhea: patients, number [1]: 50
Dizziness: patients, % [1]: (16%)
Dizziness: patients, number [1]: 29
Dry skin: patients, % [1]: (21%)
Dry skin: patients, number [1]: 37
Dysgeusia: patients, % [1]: (11%)
Dysgeusia: patients, number [1]: 20
Dyspnea: patients, % [1]: (18%)
Dyspnea: patients, number [1]: 32
Fatigue: patients, % [1]: (53%)
Fatigue: patients, number [1]: 94
Headache: patients, % [1]: (18%)
Headache: patients, number [1]: 33
Hypertension: patients, % [1]: (14%)
Hypertension: patients, number [1]: 25
Hypokalaemia: patients, % [1]: (12%)
Hypokalaemia: patients, number [1]: 21
Hypomagnesaemia: patients, % [1]: (10%)
Hypomagnesaemia: patients, number [1]: 18
Hypophosphataemia: patients, % [1]: (10%)
Hypophosphataemia: patients, number [1]: 17
Insomnia: patients, % [1]: (12%)
Insomnia: patients, number [1]: 21
Lipase increased: patients, % [1]: (10%)
Lipase increased: patients, number [1]: 18
Muscle spasms: patients, % [1]: (26%)
Muscle spasms: patients, number [1]: 47
Myalgia: patients, % [1]: (44%)
Myalgia: patients, number [1]: 79
Nausea: patients, % [1]: (43%)
Nausea: patients, number [1]: 77
Pain in extremity: patients, % [1]: (10%)
Pain in extremity: patients, number [1]: 18
Palmar-plantar erythrodysaesthesia syndrome: patients, % [1]: (40%)
Palmar-plantar erythrodysaesthesia syndrome: patients, number [1]: 71
Pruritus: patients, % [1]: (10%)
Pruritus: patients, number [1]: 18
Rash maculo-papular: patients, % [1]: (10%)
Rash maculo-papular: patients, number [1]: 18
Rash: patients, % [1]: (15%)
Rash: patients, number [1]: 27
Seborrhoeic keratosis: patients, % [1]: (12%)
Seborrhoeic keratosis: patients, number [1]: 21
Skin papilloma: patients, % [1]: (10%)
Skin papilloma: patients, number [1]: 17
Upper respiratory tract infection: patients, % [1]: (10%)
Upper respiratory tract infection: patients, number [1]: 18
Urinary tract infection: patients, % [1]: (9%)
Urinary tract infection: patients, number [1]: 16
Vision blurred: patients, % [1]: (10%)
Vision blurred: patients, number [1]: 17
Vomiting: patients, % [1]: (24%)
Vomiting: patients, number [1]: 42
Weight decreased: patients, % [1]: (29%)
Weight decreased: patients, number [1]: 51
Abdominal pain: patients, % [2]: (25%)
Abdominal pain: patients, number [2]: 44
Actinic keratosis: patients, % [2]: (14%)
Actinic keratosis: patients, number [2]: 25
Alopecia: patients, % [2]: (57%)
Alopecia: patients, number [2]: 102
Amylase increased: patients, % [2]: (12%)
Amylase increased: patients, number [2]: 21
Anemia: patients, % [2]: (21%)
Anemia: patients, number [2]: 38
Arthralgia: patients, % [2]: (22%)
Arthralgia: patients, number [2]: 40
Back Pain: patients, % [2]: (18%)
Back Pain: patients, number [2]: 32
Blood bilirubin increase: patients, % [2]: (12%)
Blood bilirubin increase: patients, number [2]: 21
Blood creatine phosphokinase increased: patients, % [2]: (10%)
Blood creatine phosphokinase increased: patients, number [2]: 18
Constipation: patients, % [2]: (37%)
Constipation: patients, number [2]: 67
Cough: patients, % [2]: (21%)
Cough: patients, number [2]: 37
Decreased appetite: patients, % [2]: (35%)
Decreased appetite: patients, number [2]: 62
Diarrhea: patients, % [2]: (30%)
Diarrhea: patients, number [2]: 53
Dizziness: patients, % [2]: (16%)
Dizziness: patients, number [2]: 29
Dry skin: patients, % [2]: (21%)
Dry skin: patients, number [2]: 37
Dysgeusia: patients, % [2]: (11%)
Dysgeusia: patients, number [2]: 20
Dyspnea: patients, % [2]: (20%)
Dyspnea: patients, number [2]: 36
Fatigue: patients, % [2]: (55%)
Fatigue: patients, number [2]: 98
Headache: patients, % [2]: (19%)
Headache: patients, number [2]: 34
Hypertension: patients, % [2]: (21%)
Hypertension: patients, number [2]: 38
Hypokalaemia: patients, % [2]: (15%)
Hypokalaemia: patients, number [2]: 26
Hypomagnesaemia: patients, % [2]: (10%)
Hypomagnesaemia: patients, number [2]: 18
Hypophosphataemia: patients, % [2]: (14%)
Hypophosphataemia: patients, number [2]: 25
Insomnia: patients, % [2]: (12%)
Insomnia: patients, number [2]: 21
Lipase increased: patients, % [2]: (29%)
Lipase increased: patients, number [2]: 51
Muscle spasms: patients, % [2]: (26%)
Muscle spasms: patients, number [2]: 47
Myalgia: patients, % [2]: (44%)
Myalgia: patients, number [2]: 79
Nausea: patients, % [2]: (44%)
Nausea: patients, number [2]: 78
Pain in extremity: patients, % [2]: (11%)
Pain in extremity: patients, number [2]: 19
Palmar-plantar erythrodysaesthesia syndrome: patients, % [2]: (40%)
Palmar-plantar erythrodysaesthesia syndrome: patients, number [2]: 72
Pruritus: patients, % [2]: (10%)
Pruritus: patients, number [2]: 18
Rash maculo-papular: patients, % [2]: (10%)
Rash maculo-papular: patients, number [2]: 18
Rash: patients, % [2]: (15%)
Rash: patients, number [2]: 27
Seborrhoeic keratosis: patients, % [2]: (12%)
Seborrhoeic keratosis: patients, number [2]: 21
Skin papilloma: patients, % [2]: (10%)
Skin papilloma: patients, number [2]: 17
Upper respiratory tract infection: patients, % [2]: (10%)
Upper respiratory tract infection: patients, number [2]: 18
Urinary tract infection: patients, % [2]: (11%)
Urinary tract infection: patients, number [2]: 20
Vision blurred: patients, % [2]: (10%)
Vision blurred: patients, number [2]: 17
Vomiting: patients, % [2]: (25%)
Vomiting: patients, number [2]: 44
Weight decreased: patients, % [2]: (29%)
Weight decreased: patients, number [2]: 52
Tolerability (GIST patients): generally well tolerated
Abdominal pain: patients, number (head not printed (Grade 3/4)): 11
Actinic keratosis: patients, % (head not printed (Grade 3/4)): (0%)
Actinic keratosis: patients, number (head not printed (Grade 3/4)): 0
Alopecia: patients, % (head not printed (Grade 3/4)): (0%)
Alopecia: patients, number (head not printed (Grade 3/4)): 0
Amylase increased: patients, % (head not printed (Grade 3/4)): (1%)
Amylase increased: patients, number (head not printed (Grade 3/4)): 2
Anemia: patients, number (head not printed (Grade 3/4)): 20
Arthralgia: patients, % (head not printed (Grade 3/4)): (0%)
Arthralgia: patients, number (head not printed (Grade 3/4)): 0
Back Pain: patients, % (head not printed (Grade 3/4)): (1%)
Back Pain: patients, number (head not printed (Grade 3/4)): 2
Blood bilirubin increase: patients, % (head not printed (Grade 3/4)): (3%)
Blood bilirubin increase: patients, number (head not printed (Grade 3/4)): 5
Blood creatine phosphokinase increased: patients, % (head not printed (Grade 3/4)): (3%)
Blood creatine phosphokinase increased: patients, number (head not printed (Grade 3/4)): 5
Constipation: patients, % (head not printed (Grade 3/4)): (0%)
Constipation: patients, number (head not printed (Grade 3/4)): 0
Cough: patients, % (head not printed (Grade 3/4)): (0%)
Cough: patients, number (head not printed (Grade 3/4)): 0
Decreased appetite: patients, % (head not printed (Grade 3/4)): (1%)
Decreased appetite: patients, number (head not printed (Grade 3/4)): 2
Diarrhea: patients, % (head not printed (Grade 3/4)): (2%)
Diarrhea: patients, number (head not printed (Grade 3/4)): 3
Dizziness: patients, % (head not printed (Grade 3/4)): (0%)
Dizziness: patients, number (head not printed (Grade 3/4)): 0
Dry skin: patients, % (head not printed (Grade 3/4)): (0%)
Dry skin: patients, number (head not printed (Grade 3/4)): 0
Dysgeusia: patients, % (head not printed (Grade 3/4)): (0%)
Dysgeusia: patients, number (head not printed (Grade 3/4)): 0
Dyspnea: patients, % (head not printed (Grade 3/4)): (2%)
Dyspnea: patients, number (head not printed (Grade 3/4)): 4
Fatigue: patients, % (head not printed (Grade 3/4)): (2%)
Fatigue: patients, number (head not printed (Grade 3/4)): 4
Headache: patients, % (head not printed (Grade 3/4)): (1%)
Headache: patients, number (head not printed (Grade 3/4)): 1
Hypertension: patients, number (head not printed (Grade 3/4)): 13
Hypokalaemia: patients, % (head not printed (Grade 3/4)): (3%)
Hypokalaemia: patients, number (head not printed (Grade 3/4)): 5
Hypomagnesaemia: patients, % (head not printed (Grade 3/4)): (0%)
Hypomagnesaemia: patients, number (head not printed (Grade 3/4)): 0
Hypophosphataemia: patients, % (head not printed (Grade 3/4)): (5%)
Hypophosphataemia: patients, number (head not printed (Grade 3/4)): 8
Insomnia: patients, % (head not printed (Grade 3/4)): (0%)
Insomnia: patients, number (head not printed (Grade 3/4)): 0
Lipase increased: patients, number (head not printed (Grade 3/4)): 33
Muscle spasms: patients, % (head not printed (Grade 3/4)): (0%)
Muscle spasms: patients, number (head not printed (Grade 3/4)): 0
Myalgia: patients, % (head not printed (Grade 3/4)): (0%)
Myalgia: patients, number (head not printed (Grade 3/4)): 0
Nausea: patients, % (head not printed (Grade 3/4)): (1%)
Nausea: patients, number (head not printed (Grade 3/4)): 1
Pain in extremity: patients, % (head not printed (Grade 3/4)): (1%)
Pain in extremity: patients, number (head not printed (Grade 3/4)): 1
Palmar-plantar erythrodysaesthesia syndrome: patients, % (head not printed (Grade 3/4)): (1%)
Palmar-plantar erythrodysaesthesia syndrome: patients, number (head not printed (Grade 3/4)): 1
Pruritus: patients, % (head not printed (Grade 3/4)): (0%)
Pruritus: patients, number (head not printed (Grade 3/4)): 0
Rash maculo-papular: patients, % (head not printed (Grade 3/4)): (0%)
Rash maculo-papular: patients, number (head not printed (Grade 3/4)): 0
Rash: patients, % (head not printed (Grade 3/4)): (0%)
Rash: patients, number (head not printed (Grade 3/4)): 0
Seborrhoeic keratosis: patients, % (head not printed (Grade 3/4)): (0%)
Seborrhoeic keratosis: patients, number (head not printed (Grade 3/4)): 0
Skin papilloma: patients, % (head not printed (Grade 3/4)): (0%)
Skin papilloma: patients, number (head not printed (Grade 3/4)): 0
Upper respiratory tract infection: patients, % (head not printed (Grade 3/4)): (0%)
Upper respiratory tract infection: patients, number (head not printed (Grade 3/4)): 0
Urinary tract infection: patients, % (head not printed (Grade 3/4)): (2%)
Urinary tract infection: patients, number (head not printed (Grade 3/4)): 4
Vision blurred: patients, % (head not printed (Grade 3/4)): (0%)
Vision blurred: patients, number (head not printed (Grade 3/4)): 0
Vomiting: patients, % (head not printed (Grade 3/4)): (1%)
Vomiting: patients, number (head not printed (Grade 3/4)): 2
Weight decreased: patients, % (head not printed (Grade 3/4)): (1%)
Weight decreased: patients, number (head not printed (Grade 3/4)): 1

Reference: US12318373B2, “Methods of treating gastrointestinal stromal tumors” (Deciphera Pharmaceuticals, LLC, priority 2019, dated 2025)
